Experimental findings from patent US9730940B2, “Purine inhibitors of human phosphatidylinositol 3-kinase delta” (priority 2012, dated 2017) are described below.

This experiment concerns the target PI3K-alpha (Homo sapiens (Human), UniProt P42336). Description: HTRF PI3K biochemical assay, alpha isoform. The following applies: ratio PI3K-alpha IC50 value/PI3K-delta IC50 value.

Sequence of PI3K-alpha (P42336 whole entry, looked up, canonical isoform): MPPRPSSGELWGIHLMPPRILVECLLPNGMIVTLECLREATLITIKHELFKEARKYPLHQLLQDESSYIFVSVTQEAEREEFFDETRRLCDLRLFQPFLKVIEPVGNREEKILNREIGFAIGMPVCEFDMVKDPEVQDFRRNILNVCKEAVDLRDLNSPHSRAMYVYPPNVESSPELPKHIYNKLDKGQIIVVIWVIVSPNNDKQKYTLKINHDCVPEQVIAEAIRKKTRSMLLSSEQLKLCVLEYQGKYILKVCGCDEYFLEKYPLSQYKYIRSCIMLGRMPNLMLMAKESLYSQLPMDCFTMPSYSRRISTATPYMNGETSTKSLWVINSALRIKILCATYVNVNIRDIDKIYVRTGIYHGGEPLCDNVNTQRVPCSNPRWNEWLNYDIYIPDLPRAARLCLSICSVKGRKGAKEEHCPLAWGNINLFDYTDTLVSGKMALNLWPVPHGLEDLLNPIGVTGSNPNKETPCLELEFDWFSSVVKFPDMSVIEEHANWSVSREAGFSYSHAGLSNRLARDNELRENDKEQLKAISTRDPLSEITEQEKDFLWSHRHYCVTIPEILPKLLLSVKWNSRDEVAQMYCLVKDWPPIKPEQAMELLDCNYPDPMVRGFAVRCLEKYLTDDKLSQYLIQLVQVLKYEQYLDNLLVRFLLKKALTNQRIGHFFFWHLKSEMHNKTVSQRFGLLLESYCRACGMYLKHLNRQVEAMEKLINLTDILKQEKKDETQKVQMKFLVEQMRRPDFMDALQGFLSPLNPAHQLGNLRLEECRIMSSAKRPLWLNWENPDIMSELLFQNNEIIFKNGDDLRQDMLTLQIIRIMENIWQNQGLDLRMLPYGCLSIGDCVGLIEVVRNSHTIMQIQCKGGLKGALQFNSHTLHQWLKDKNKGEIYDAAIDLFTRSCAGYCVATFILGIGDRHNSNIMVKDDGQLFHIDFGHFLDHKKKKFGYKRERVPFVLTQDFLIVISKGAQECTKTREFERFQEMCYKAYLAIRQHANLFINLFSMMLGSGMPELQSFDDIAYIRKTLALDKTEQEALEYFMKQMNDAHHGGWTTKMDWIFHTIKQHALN
Sequence of PI3K-alpha (P27986 whole entry partner, looked up, canonical isoform): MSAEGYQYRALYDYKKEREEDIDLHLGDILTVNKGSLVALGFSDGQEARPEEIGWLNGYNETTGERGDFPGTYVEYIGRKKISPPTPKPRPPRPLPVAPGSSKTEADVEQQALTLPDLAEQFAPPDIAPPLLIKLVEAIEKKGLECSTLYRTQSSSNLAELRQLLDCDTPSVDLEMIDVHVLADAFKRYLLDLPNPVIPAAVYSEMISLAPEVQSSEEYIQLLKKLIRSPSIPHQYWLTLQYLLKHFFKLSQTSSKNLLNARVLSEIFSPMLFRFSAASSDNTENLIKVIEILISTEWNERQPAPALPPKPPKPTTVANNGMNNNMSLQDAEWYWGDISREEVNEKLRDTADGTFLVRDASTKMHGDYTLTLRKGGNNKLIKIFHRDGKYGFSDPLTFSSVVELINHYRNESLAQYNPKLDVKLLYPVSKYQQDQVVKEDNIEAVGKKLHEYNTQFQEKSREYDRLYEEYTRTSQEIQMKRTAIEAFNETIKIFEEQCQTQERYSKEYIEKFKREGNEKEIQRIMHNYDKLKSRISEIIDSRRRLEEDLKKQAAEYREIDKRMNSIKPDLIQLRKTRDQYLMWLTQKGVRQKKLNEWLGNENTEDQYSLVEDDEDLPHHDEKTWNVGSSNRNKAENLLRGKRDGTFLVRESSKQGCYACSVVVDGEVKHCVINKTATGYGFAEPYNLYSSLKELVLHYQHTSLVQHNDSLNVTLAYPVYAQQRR

As to `CCn1ncc(-c2nc3c(O[C@H]4CCN(C(=O)c5cncn5C)C4)ncnc3n2C)c1C` [Compound 2-73], the “Relative Selectivity versus PI3Kalpha” value is reported as over 10.
Next, `CCn1c(-c2cnc(C)nc2)nc2c(O[C@H]3CCN(C(=O)N4CC(OC)C4)C3)ncnc21` [Compound 5-13, 9-ethyl-6-({(3S)-1-[(3-methoxyazetidin-1-yl)carbonyl]pyrrolidin-3-yl}oxy)-8-(2-methylpyrimidin-5-yl)-9H-purine]: over 10.
For the compound `CCC(=O)N1CC[C@H](Oc2ncnc3c2nc(Oc2ccc(OC)c(F)c2)n3C)C1` [Compound 12-4, 8-(3-fluoro-4-methoxyphenoxy)-9-methyl-6-{[(3S)-1-propanoylpyrrolidin-3-yl]oxy}-9H-purine], the “Relative Selectivity versus PI3Kalpha” value is on record as over 10.
For the compound `CCn1c(-c2cnc(OC)c(F)c2)nc2c(O[C@H]3CCN(C(=O)C4CC(F)(F)C4)C3)ncnc21` [Compound 3-55, 6-({(3S)-1-[(3,3-difluorocyclobutyl)carbonyl]pyr-rolidin-3-yl}oxy)-9-ethyl-8-(5-fluoro-6-methoxypyridin-3-yl)-9H-purine], the “Relative Selectivity versus PI3Kalpha” value is recorded as over 10.
Turning to `CCn1c(-c2cnc(C)nc2)nc2c(O[C@H]3CCN(C(=O)C4CC4F)C3)ncnc21` (single isomer, unassigned) [Compound 2-135, 9-ethyl-6-({(3S)-1-[((1R,2R)- or (1S,2S)-2-fluorocyclopropyl)carbonyl]pyrrolidin-3-yl}oxy)-8-(2-methylpyrimidin-5-yl)-9H-purine], the “Relative Selectivity versus PI3Kalpha” value is over 10.
For `CCNC(=O)c1nc2c(O[C@H]3CCN(C(=O)OC(C)(C)C)C3)ncnc2n1CC` [Compound 15-5, tert-butyl (3S)-3-{[9-ethyl-8-(ethylcarbamoyl)-9H-purin-6-yl]oxy}pyrrolidine-1-carboxylate], the “Relative Selectivity versus PI3Kalpha” value is given as over 10.
In the case of `CCC(=O)N1CC[C@H](Oc2ncnc3c2nc(-c2cnc(C(C)(C)C)s2)n3CC)C1` [Compound 2-95, (S)-1-(3-((8-(2-(tert-butyl)thiazol-5-yl)-9-ethyl-9H-purin-6-yl)oxy)pyrrolidin-1-yl)propan-1-one], the “Relative Selectivity versus PI3Kalpha” value was over 10.
In the case of `CCC(=O)N1CC[C@H](Oc2ncnc3c2nc(-c2cnc(C)nc2)n3C)C1` [Compound 3-20, 9-methyl-8-(2-methylpyrimidin-5-yl)-6-{[(3S)-1-propanoylpyrrolidin-3-yl]oxy}-9H-purine], the “Relative Selectivity versus PI3Kalpha” value is over 10.
Turning to `CCC(=O)N1CC[C@H](Sc2ncnc3c2nc(-c2cnn(CC)c2C)n3C)C1` [Compound 10-4, (S)-1-(3-((8-(1-ethyl-5-methyl-1H-pyrazol-4-yl)-9-methyl-9H-purin-6-yl)thio)pyrrolidin-1-yl)propan-1-one], the “Relative Selectivity versus PI3Kalpha” value is over 10.
Next, `CCn1c(-c2cnc(C)nc2)nc2c(O[C@H]3CCN(C(=O)C4CC4CF)C3)ncnc21` (single isomer, unassigned) [Compound 2-132, 9-ethyl-6-{[(3S)-1-{[(1S,2S)- or (1R,2R)-2-(fluoromethyl)cyclopropyl]carbonyl}pyrrolidin-3-yl]oxy}-8-(2-methylpyrimidin-5-yl)-9H-purine]: over 10; `CCN(C)C(=O)N1CC[C@H](Oc2ncnc3c2nc(-c2cnc(C)nc2)n3CC)C1` [Compound 5-9, (3S)-N-ethyl-3-{[9-ethyl-8-(2-methylpyrimidin-5-yl)-9H-purin-6-yl]oxy}-N-methylpyrrolidine-1-carboxamide]: over 10; `CCn1ncc(-c2nc3c(O[C@H]4CCN(C(=O)c5ccnc(C)c5)C4)ncnc3n2C)c1C` [Compound 2-56, 8-(1-ethyl-5-methyl-1H-pyrazol-4-yl)-9-methyl-6-({(3S)-1-[(2-methylpyridin-4-yl)carbonyl]pyrrolidin-3-yl}oxy)-9H-purine]: over 10.
As to `CCn1ncc(-c2nc3c(O[C@@H]4CCCN(C(=O)OC(C)(C)C)C4)ncnc3n2C)c1C` [Compound 1-42, (R)-tert-butyl 3-((8-(1-ethyl-5-methyl-1H-pyrazol-4-yl)-9-methyl-9H-purin-6-yl)oxy)piperidine-1-carboxylate], the “Relative Selectivity versus PI3Kalpha” value is over 2.
With `CCC(=O)N1CC[C@H](Oc2ncnc3c2nc(-c2cnc4[nH]nc(C)c4c2)n3C)C1` [Compound 3-10, 9-methyl-8-(3-methyl-1H-pyrazolo[3,4-b]pyridin-5-yl)-6-{[(3S)-1-propanoylpyrrolidin-3-yl]oxy}-9H-purine], the “Relative Selectivity versus PI3Kalpha” value is on record as over 10.
Next, `CCn1ncc(-c2nc3c(OC4CCN(C(=O)C5CCCC5)C4)ncnc3n2C)c1C` (stereo not shown) [Compound 2-2, 6-{[1-(cyclopentylcarbonyl)pyrrolidin-3-yl]oxy}-8-(1-ethyl-5-methyl-1H-pyrazol-4-yl)-9-methyl-9H-purine]: over 10; `CCn1ncc(-c2nc3c(O[C@H]4CCN(C(=O)c5nnc(C)o5)C4)ncnc3n2C)c1C` [Compound 2-81, 8-(1-ethyl-5-methyl-1H-pyrazol-4-yl)-9-methyl-6-({(3S)-1-[(5-methyl-1,3,4-oxadiazol-2-yl)carbonyl]pyrrolidin-3-yl}oxy)-9H-purine]: 5.
Under `CCn1c(-c2cnc(C)nc2)nc2c(O[C@H]3CCCN(c4ccccn4)C3)ncnc21` [Compound 7-27, 9-ethyl-8-(2-methylpyrimidin-5-yl)-6-{[(3S)-1-pyridin-2-ylpiperidin-3-yl]oxy}-9H-purine] stands over 10.
Under `CCn1ncc(-c2nc3c(O[C@H]4CCN(C(=O)c5cnn(C(C)C)c5)C4)ncnc3n2C)c1C` [Compound 2-31, 8-(1-ethyl-5-methyl-1H-pyrazol-4-yl)-9-methyl-6-{[(3S)-1-{[1-(1-methylethyl)-1H-pyrazol-4-yl]carbonyl}pyrrolidin-3-yl]oxy}-9H-purine] stands 5; under `CCn1c(-c2cnc(C)c(F)c2)nc2c(O[C@H]3CCN(C(=O)C4CC4)C3)ncnc21` [Compound 3-30, 6-{[(3S)-1-(cyclopropylcarbonyl)pyrrolidin-3-yl]oxy}-9-ethyl-8-(5-fluoro-6-methylpyridin-3-yl)-9H-purine], over 10; under `CCn1c(-c2cnc(C)nc2)nc2c(O[C@H]3CCN(C(=O)OC(C)(C)C)[C@@H]3C)ncnc21` [Compound 1-48, tert-butyl (2R,3S)-3-{[9-ethyl-8-(2-methylpyrimidin-5-yl)-9H-purin-6-yl]oxy}-2-methylpyrrolidine-1-carboxylate], over 10.
Turning to `CCn1ncc(-c2nc3c(O[C@H]4CCCN(C(=O)OC(C)(C)C)C4)ncnc3n2C)c1C` [Compound 1-41, (S)-tert-butyl 3-((8-(1-ethyl-5-methyl-1H-pyrazol-4-yl)-9-methyl-9H-purin-6-yl)oxy)piperidine-1-carboxylate], the “Relative Selectivity versus PI3Kalpha” value was over 10.
On to `CCC(=O)N1CC[C@H](Oc2ncnc3c2nc(C(F)F)n3CC)C1` [Compound 14-5, 8-(difluoromethyl)-9-ethyl-6-{[(3S)-1-propanoylpyrrolidin-3-yl]oxy}-9H-purine], for which the “Relative Selectivity versus PI3Kalpha” value is given as over 10.
Next, `Cc1n[nH]c2ncc(-c3nc4c(O[C@H]5CCN(C(=O)OC(C)(C)C)C5)ncnc4n3C)cc12` [Compound 1-33, (S)-tert-butyl 3-((9-methyl-8-(3-methyl-1H-pyrazolo[3,4-b]pyridin-5-yl)-9H-purin-6-yl)oxy}pyrrolidine-1-carboxylate]: over 10.
Next, `CCn1c(-c2cnc(C)nc2)nc2c(O[C@H]3CCN(C(=O)C4CC4F)C3)ncnc21` (single isomer, unassigned) [Compound 2-134, 9-ethyl-6-(((3S)-1-[((1R,2R)- or (1S,2S)-2-fluorocyclopropyl)carbonyl]pyrrolidin-3-yl}oxy)-8-(2-methylpyrimidin-5-yl)-9H-purine]: over 10; `CCn1ncc(-c2nc3c(O[C@H]4CCN(C(=O)c5cnn6cccnc56)C4)ncnc3n2C)c1C` [Compound 2-41, 8-(1-ethyl-5-methyl-1H-pyrazol-4-yl)-9-methyl-6-{[(3S)-1-(pyrazolo[1,5-a]pyrimidin-3-ylcarbonyl)pyrrolidin-3-yl]oxy}-9H-purine]: 6.
For the compound `CCn1c(-c2cnc(N(C)C)nc2)nc2c(O[C@H]3CCN(C(=O)C4CC4)C3)ncnc21` [Compound 3-45, 5-(6-{[(3S)-1-(cyclopropylcarbonyl)pyrrolidin-3-yl]oxy}-9-ethyl-9H-purin-8-yl)-N,N-dimethylpyrimidin-2-amine], the “Relative Selectivity versus PI3Kalpha” value was over 10.
With `CCn1c(-c2cnc(C)nc2)nc2c(O[C@H]3CCN(C(=O)N4CC(F)(F)C4)C3)ncnc21` [Compound 5-14, 6-{[(3S)-1-[(3,3-difluoroazetidin-1-yl)carbonyl]pyrrolidin-3-yl}oxy)-9-ethyl-8-(2-methylpyrimidin-5-yl)-9H-purine], the “Relative Selectivity versus PI3Kalpha” value was over 10.
Next, `Cc1n[nH]cc1-c1nc2c(O[C@H]3CCN(C(=O)OC(C)(C)C)C3)ncnc2n1C` [Compound 1-26, tert-butyl (3S)-3-{[9-methyl-8-(3-methyl-1H-pyrazol-4-yl)-9H-purin-6-yl]oxy}pyrrolidine-1-carboxylate]: over 10; `CCn1c(-c2cnc(C)nc2)nc2c(O[C@H]3CCN(C(=O)C4CC4C(F)F)C3)ncnc21` (single isomer, unassigned) [Compound 2-125, 6-{[(3S)-1-{(1S,2S)- or (1R,2R)-[2-(difluoromethyl)cyclopropyl]carbonyl}pyrrolidin-3-yl]oxy}-9-ethyl-8-(2-methylpyrimidin-5-yl)-9H-purine]: over 10; `CCn1c(-c2ccc(C(F)(F)F)nc2)nc2c(O[C@H]3CCN(C(=O)C4CC4)C3)ncnc21` [Compound 2-145, 6-{[(3S)-1-(cyclopropylcarbonyl)pyrrolidin-3-yl]oxy}-9-ethyl-8-[6-(trifluoromethyl)pyridin-3-yl]-9H-purine]: over 10.
In the case of `CCn1ncc(-c2nc3c(O[C@H]4CCN(C(=O)OCC(C)(C)C)C4)ncnc3n2C)c1C` [Compound 1-9, 2,2-dimethylpropyl (3S)-3-{[8-(1-ethyl-5-methyl-1H-pyrazol-4-yl)-9-methyl-9H-purin-6-yl]oxy}pyrrolidine-1-carboxylate], the “Relative Selectivity versus PI3Kalpha” value is on record as over 10.
